Experiments:
[1] = biological target: T1, NPR-3 (Caenorhabditis elegans, UniProt P90745); assay: cAMP reporter gene assay, Gi/o (inhibition of forskolin-induced cAMP), NPR-3; type: cell-based, C. elegans; settings: 1 µM forskolin set to 1.00, transiently transfected HEK293 cells, mean of at least three independent experiments
T1 construct: expressed in transfected cells; host or cells: HEK293
T1 sequence (P90745 1-376): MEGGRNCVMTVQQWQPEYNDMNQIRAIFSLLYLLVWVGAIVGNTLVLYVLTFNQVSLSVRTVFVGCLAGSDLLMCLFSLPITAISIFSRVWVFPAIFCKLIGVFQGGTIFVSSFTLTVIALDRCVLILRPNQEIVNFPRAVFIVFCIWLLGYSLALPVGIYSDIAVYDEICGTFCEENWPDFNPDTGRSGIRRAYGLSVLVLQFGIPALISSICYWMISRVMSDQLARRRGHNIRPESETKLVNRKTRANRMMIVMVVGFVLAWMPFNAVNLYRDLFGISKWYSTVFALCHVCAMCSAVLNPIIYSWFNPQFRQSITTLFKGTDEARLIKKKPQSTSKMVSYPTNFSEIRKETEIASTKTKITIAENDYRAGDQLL
Protocol: (§1) Activation of Gs and Gi/o was assessed with a cAMP reporter gene assay. HEK293 cells grown to 70–80% confluency in 6-well plates were transiently co-transfected with vectors encoding the receptor and the cAMP reporter gene plasmid pGL4.29 [luc2P/CRE/Hygro] (Promega; 4 μg total, 1:1 ratio) using Metafectene Pro (3 μl/μg DNA; Biontex) following the manufacturer’s instructions. 16 h post transfection, the cells were seeded into white 384-well plates at a density of 20,000 cells/well. On the next day, the medium was removed and the cells were stimulated with 20 μl of peptide solution (or forskolin as positive control) in serum-free DMEM for 4 h. For measuring Gi/o activity, the peptide solutions additionally contained 1 μM forskolin to elevate cellular cAMP levels. After incubation, the luciferase substrate OneGlo in lysis buffer (Promega) was added and the luminescence was measured in a microplate reader Tecan Spark (Tecan). Data were analyzed with GraphPad Prism 5.03 and are shown as fold of basal or fold of forskolin in case of Gαi/o activity.
(§2) For in vitro activation, data is presented as mean ± SEM of at least three independent experiments conducted in technical triplicate. […] For the C. elegans NPRs, we considered the strongest response elicited by any of the peptides downstream of a particular receptor as the receptor’s maximal signal. This may or may not be the biological maximum that can be reached by the ‘true’ endogenous agonist. For the human receptors, the response to the established endogenous agonist reflected the maximal signal.

[2] = biological target: T2, Y1R (Homo sapiens, UniProt P25929); assay: IP accumulation assay, chimeric GαΔ6qi4myr, Y1R; type: cell-based; settings: chimeric GαΔ6qi4myr co-transfected, transiently transfected HEK293 cells, mean of at least three independent experiments
T2 construct: expressed in transfected cells; host or cells: HEK293, transient
T2 sequence (P25929 1-384): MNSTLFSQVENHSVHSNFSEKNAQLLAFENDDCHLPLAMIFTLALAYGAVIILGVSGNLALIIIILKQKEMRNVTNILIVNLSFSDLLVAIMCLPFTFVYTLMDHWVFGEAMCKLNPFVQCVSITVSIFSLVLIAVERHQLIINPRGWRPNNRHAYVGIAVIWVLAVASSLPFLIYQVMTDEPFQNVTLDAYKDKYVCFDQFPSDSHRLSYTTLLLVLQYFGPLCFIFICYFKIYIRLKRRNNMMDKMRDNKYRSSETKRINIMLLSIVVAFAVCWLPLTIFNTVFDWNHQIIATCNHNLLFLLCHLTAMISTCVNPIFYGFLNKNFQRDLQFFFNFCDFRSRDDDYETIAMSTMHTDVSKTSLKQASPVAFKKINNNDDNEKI
Protocol: For measuring IP accumulation, HEK293 cells grown to 70–80% confluency in 6-well plates were transiently co-transfected using Metafectene Pro (2.5 μl/μg DNA; Biontex) with plasmids containing receptor and/or mock (empty pcDNA3.1) (for endogenous Gq-coupling) using 4 μg total DNA in a ratio of 3:1 following the manufacturer’s instructions. For testing Gα16- and GαΔ6qi4myr-coupling, plasmids encoding the corresponding Gα protein were co-transfected instead of mock. Gα16 is naturally promiscuous and stimulates the phospholipase C (PLC) pathway leading to IP production, while the exchange of the C-terminal four amino acids of Gαq for the corresponding residues of Gαi1 in the chimeric GαΔ6qi4myr confers the ability to couple to Gi/o protein-preferring receptors but still stimulate PLC, thus specifically redirecting downstream cellular signaling. 16 h post transfection, the cells were seeded into white 384-well plates at a density of 20,000 cells/well. Media was removed 24 h later and the cells were incubated with the indicated concentration of peptides for 1 h in HBSS + 20 mM LiCl. IP accumulation was measured with the HTRF-based IP-One Gq kit (Cisbio) on a microplate reader (Tecan Spark).
as §2

[3] = tested on: NPR-6; assay: cAMP reporter gene assay, Gi/o (inhibition of forskolin-induced cAMP), NPR-6; type: cell-based, C. elegans; settings: 1 µM forskolin set to 1.00, transiently transfected HEK293 cells, mean of at least three independent experiments
Protocol: as §1, §2

[4] = biological target: T3, NPR-4b (Caenorhabditis elegans, UniProt A0A078BTK0); assay: cAMP reporter gene assay, Gi/o (inhibition of forskolin-induced cAMP), NPR-4b; type: cell-based, C. elegans; settings: 1 µM forskolin set to 1.00, transiently transfected HEK293 cells, mean of at least three independent experiments
T3 sequence (A0A078BTK0 1-376): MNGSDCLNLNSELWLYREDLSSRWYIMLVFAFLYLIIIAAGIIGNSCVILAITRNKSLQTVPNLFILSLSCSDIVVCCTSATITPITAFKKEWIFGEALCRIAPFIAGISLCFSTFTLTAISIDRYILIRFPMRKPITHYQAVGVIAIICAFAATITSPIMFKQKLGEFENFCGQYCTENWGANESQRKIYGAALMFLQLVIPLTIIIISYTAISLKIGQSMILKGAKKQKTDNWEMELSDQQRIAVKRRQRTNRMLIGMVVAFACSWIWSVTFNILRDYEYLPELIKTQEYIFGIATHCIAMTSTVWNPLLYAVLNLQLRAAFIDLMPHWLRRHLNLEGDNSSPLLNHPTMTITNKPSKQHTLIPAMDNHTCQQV
Protocol: as §1, with “(Tecan).” for “(Tecan). Data were analyzed with GraphPad Prism 5.03 and are shown as fold of basal or fold of forskolin in case of Gαi/o activity.”
as §2

Row | Substance | cAMP, x-fold of forskolin (mean), NPR-3 ([1]; 0.1 µM peptide) | cAMP, x-fold of forskolin (mean), NPR-3 ([1]; 10 µM peptide) | IP accumulation, x-fold of basal (mean), Y1R ([2]; 0.1 µM peptide) | IP accumulation, x-fold of basal (mean), Y1R ([2]; 10 µM peptide) | cAMP, x-fold of forskolin (mean), NPR-6 ([3]; 0.1 µM peptide) | cAMP, x-fold of forskolin (mean), NPR-6 ([3]; 10 µM peptide) | cAMP, x-fold of forskolin (mean), NPR-4b ([4]; 0.1 µM peptide) | cAMP, x-fold of forskolin (mean), NPR-4b ([4]; 10 µM peptide)
1 | ASPSFIRF-NH2 [FLP-4-2, C. elegans FMRFamide-like peptide, C-terminally amidated, synthesized by SPPS] | 0.94 x-fold of forskolin | 0.83 x-fold of forskolin | 2.37 x-fold of basal | 1.93 x-fold of basal | 0.86 x-fold of forskolin | 0.72 x-fold of forskolin | 0.52 x-fold of forskolin | 0.19 x-fold of forskolin
2 | AGSDPNFLRF-NH2 [FLP-1-2, C. elegans FMRFamide-like peptide, C-terminally amidated, synthesized by SPPS] | 0.87 x-fold of forskolin | 1.02 x-fold of forskolin | 1.25 x-fold of basal | 3.68 x-fold of basal | 0.94 x-fold of forskolin | 0.29 x-fold of forskolin | 0.81 x-fold of forskolin | 0.42 x-fold of forskolin
3 | TSGPLGNLAEELNGYSRKKGGFSFRF-NH2 [QRFP26, human pyroglutamylated RFamide peptide, 26 residues, reference compound] | 0.90 x-fold of forskolin | 0.97 x-fold of forskolin | 1.32 x-fold of basal | 2.75 x-fold of basal | 0.97 x-fold of forskolin | 0.93 x-fold of forskolin | 0.89 x-fold of forskolin | 0.34 x-fold of forskolin
4 | NPENDTPFGTMRF-NH2 [FLP-3-4, C. elegans FMRFamide-like peptide, C-terminally amidated, synthesized by SPPS] | 0.85 x-fold of forskolin | 0.89 x-fold of forskolin | 1.54 x-fold of basal | 3.82 x-fold of basal | 0.85 x-fold of forskolin | 0.26 x-fold of forskolin | 0.67 x-fold of forskolin | 0.23 x-fold of forskolin

— paper PMC6751662, “Pharmacological and functional similarities of the human neuropeptide Y system in C. elegans challenges phylogenetic views on the FLP/NPR system” (Cell Communication and Signaling : CCS, 2019)
